Results reported in ChEMBL document CHEMBL1909046, “DrugMatrix in vitro pharmacology data”.

Columns and labels:
[1] = DRUGMATRIX: Calcium Channel Type L, Dihydropyridine radioligand binding (ligand: [3H] Nitrendipine); type: cell membranes, Rattus norvegicus, Wistar, Cerebral cortex, Membrane; details: Not Active = under 50% inhibition at 10 µM
[2] = DRUGMATRIX: Phorbol Ester radioligand binding (ligand: [3H] PDBu); type: cell membranes, Mus musculus, ICR, Brain, Membrane; details: Not Active = under 50% inhibition at 10 µM
B2 bradykinin receptor = target: T1, B2 bradykinin receptor (Homo sapiens, UniProt P30411); type: cell membranes, Membrane; details: chem-1; also: in other assays of this panel Not Active means under 50% inhibition at 10 µM
T1 sequence (P30411 whole entry): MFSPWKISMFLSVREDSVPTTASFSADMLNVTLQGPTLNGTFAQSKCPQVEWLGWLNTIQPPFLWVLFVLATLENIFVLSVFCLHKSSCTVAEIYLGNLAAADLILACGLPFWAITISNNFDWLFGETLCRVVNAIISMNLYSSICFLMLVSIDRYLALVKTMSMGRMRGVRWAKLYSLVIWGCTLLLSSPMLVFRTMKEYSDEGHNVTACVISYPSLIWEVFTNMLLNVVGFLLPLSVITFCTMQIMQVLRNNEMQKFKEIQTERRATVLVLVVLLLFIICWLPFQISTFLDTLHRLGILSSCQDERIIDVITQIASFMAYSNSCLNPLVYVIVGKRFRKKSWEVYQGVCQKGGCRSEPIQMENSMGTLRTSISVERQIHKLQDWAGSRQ

[3] = target: Beta-3 adrenergic receptor (Homo sapiens, UniProt P13945); test: DRUGMATRIX: Adrenergic beta3 radioligand binding (ligand: [125I] Cyanopindolol); type: cell membranes, HEK293, Membrane; details: hek293; Not Active = under 50% inhibition at 10 µM
[4] = target: T2, C-X-C chemokine receptor type 1 (Homo sapiens, UniProt P25024); also: in other assays of this panel Not Active means under 50% inhibition at 10 µM
T2 sequence (P25024 whole entry): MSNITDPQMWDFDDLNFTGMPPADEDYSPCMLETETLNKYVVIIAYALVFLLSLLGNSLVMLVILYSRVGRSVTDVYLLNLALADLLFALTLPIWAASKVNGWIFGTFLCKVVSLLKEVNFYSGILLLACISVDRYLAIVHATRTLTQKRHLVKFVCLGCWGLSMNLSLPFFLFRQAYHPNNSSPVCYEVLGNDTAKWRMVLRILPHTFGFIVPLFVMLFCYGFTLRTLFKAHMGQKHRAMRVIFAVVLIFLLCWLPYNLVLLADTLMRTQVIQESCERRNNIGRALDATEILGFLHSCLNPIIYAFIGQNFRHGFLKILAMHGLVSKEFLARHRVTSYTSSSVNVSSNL

[5] = DRUGMATRIX: Phosphodiesterase PDE3 enzyme inhibition (substrate: [3H]cAMP + cAMP); type: tissue-based, Homo sapiens; details: platelet; Not Active = under 50% inhibition at 10 µM
Caspase-1 = target: T3, Caspase-1 (Homo sapiens, UniProt P29466); design: species or system Escherichia coli;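 also: Caspase-1 enzyme inhibition assay with a peptide substrate; in other assays of this panel Not Active means under 50% inhibition at 10 µM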
T3 sequence (P29466 whole entry): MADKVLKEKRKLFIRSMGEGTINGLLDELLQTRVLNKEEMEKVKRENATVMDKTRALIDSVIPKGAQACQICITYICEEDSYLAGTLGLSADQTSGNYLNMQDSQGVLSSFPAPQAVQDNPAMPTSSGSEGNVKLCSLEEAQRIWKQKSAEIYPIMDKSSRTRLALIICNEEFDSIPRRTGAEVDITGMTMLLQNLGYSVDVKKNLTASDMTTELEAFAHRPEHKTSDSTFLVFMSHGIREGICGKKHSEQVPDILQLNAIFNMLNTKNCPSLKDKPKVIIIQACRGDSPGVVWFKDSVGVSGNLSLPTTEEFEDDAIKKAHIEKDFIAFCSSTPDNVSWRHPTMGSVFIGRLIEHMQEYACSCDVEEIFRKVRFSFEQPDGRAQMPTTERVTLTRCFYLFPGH

Carbonic anhydrase 2 = Carbonic anhydrase 2 (Homo sapiens, UniProt P00918); test: DRUGMATRIX: Carbonic Anhydrase II enzyme inhibition (substrate: 4-Nitrophenyl acetate (4-NPA)); type: tissue-based, Erythrocyte; details: erythrocyte; Not Active = under 50% inhibition at 10 µM
[6] = target: T4, Type-2 angiotensin II receptor (Homo sapiens, UniProt P50052); type: cell-based; details: cho-k1; also: in other assays of this panel Not Active means under 50% inhibition at 10 µM
T4 sequence (P50052 whole entry): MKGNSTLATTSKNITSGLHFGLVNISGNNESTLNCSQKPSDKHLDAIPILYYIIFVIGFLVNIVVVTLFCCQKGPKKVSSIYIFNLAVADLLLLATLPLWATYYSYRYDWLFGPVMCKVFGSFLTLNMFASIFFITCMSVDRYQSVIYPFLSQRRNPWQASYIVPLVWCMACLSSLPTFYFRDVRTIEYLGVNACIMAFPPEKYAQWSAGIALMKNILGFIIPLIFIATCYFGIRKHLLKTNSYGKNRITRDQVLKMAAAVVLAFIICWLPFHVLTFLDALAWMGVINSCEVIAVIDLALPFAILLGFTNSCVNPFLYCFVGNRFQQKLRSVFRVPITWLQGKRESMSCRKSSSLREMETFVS

Vasopressin V1a receptor = Vasopressin V1a receptor (Homo sapiens, UniProt P37288); type: cell membranes, Membrane; details: hek293; also: in other assays of this panel Not Active means under 50% inhibition at 10 µM
[7] = target: Receptor tyrosine-protein kinase erbB-2 (Homo sapiens, UniProt P04626); test: biochemical; type: cell-based, Insect cells; details: insect cells
Adenosine receptor A3 = target: T5, Adenosine receptor A3 (Homo sapiens, UniProt P0DMS8); type: cell membranes, CHO-K1, Membrane
T5 sequence (P0DMS8 whole entry): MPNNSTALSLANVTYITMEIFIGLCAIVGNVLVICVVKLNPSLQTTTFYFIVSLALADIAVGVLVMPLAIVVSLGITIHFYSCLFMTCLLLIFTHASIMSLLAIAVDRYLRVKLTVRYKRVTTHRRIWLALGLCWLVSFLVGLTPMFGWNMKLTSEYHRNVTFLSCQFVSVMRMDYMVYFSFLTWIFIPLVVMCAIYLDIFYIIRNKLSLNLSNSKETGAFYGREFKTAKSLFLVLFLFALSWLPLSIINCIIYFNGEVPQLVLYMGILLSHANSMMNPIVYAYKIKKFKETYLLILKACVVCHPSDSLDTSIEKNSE

[8] = DRUGMATRIX: Glutamate, AMPA radioligand binding (ligand: [3H] AMPA); type: cell membranes, Rattus norvegicus, Wistar, Cerebral cortex, Membrane; details: Not Active = under 50% inhibition at 10 µM
[9] = target: Mitogen-activated protein kinase 1 (Homo sapiens, UniProt P28482); test: DRUGMATRIX: Protein Serine/Threonine Kinase, ERK2 enzyme inhibition (substrate: Myelin Basic Protein); design: species or system Escherichia coli; details: Not Active = under 50% inhibition at 10 µM
[10] = DRUGMATRIX: Serotonin (5-Hydroxytryptamine) 5-HT3 radioligand binding (ligand: [3H] GR-65630); type: cell membranes, Membrane; details: hek293; Not Active = under 50% inhibition at 10 µM
Mu-type opioid receptor = Mu-type opioid receptor (Homo sapiens, UniProt P35372); test: DRUGMATRIX: Opiate mu (OP3, MOP) radioligand binding (ligand: [3H] Diprenorphine); type: cell membranes, CHO-K1, Membrane; details: cho-k1; Not Active = under 50% inhibition at 10 µM
Chain of Mu-type opioid receptor (P35372 whole entry): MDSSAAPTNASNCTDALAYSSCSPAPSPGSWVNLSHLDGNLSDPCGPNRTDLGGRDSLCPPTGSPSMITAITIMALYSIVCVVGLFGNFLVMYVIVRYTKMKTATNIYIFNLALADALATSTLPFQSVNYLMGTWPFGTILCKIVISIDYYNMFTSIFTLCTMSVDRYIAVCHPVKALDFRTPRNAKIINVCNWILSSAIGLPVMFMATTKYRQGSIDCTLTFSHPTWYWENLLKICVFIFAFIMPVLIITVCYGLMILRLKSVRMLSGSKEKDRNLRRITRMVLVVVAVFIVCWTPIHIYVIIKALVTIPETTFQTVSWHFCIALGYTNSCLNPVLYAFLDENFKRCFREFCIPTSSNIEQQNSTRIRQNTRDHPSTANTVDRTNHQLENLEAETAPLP

Chain of Beta-3 adrenergic receptor (P13945 whole entry): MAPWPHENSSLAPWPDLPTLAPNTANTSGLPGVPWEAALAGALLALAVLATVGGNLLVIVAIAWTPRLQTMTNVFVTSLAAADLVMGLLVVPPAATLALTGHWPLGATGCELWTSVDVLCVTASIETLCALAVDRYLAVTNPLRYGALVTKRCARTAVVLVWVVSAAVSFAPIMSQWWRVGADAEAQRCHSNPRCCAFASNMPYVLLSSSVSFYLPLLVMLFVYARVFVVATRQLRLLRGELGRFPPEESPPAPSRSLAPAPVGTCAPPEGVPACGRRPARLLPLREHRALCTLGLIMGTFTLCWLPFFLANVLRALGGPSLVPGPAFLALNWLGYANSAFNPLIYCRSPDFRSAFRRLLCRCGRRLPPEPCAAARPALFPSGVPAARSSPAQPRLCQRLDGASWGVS
Chain of Vasopressin V1a receptor (P37288 whole entry): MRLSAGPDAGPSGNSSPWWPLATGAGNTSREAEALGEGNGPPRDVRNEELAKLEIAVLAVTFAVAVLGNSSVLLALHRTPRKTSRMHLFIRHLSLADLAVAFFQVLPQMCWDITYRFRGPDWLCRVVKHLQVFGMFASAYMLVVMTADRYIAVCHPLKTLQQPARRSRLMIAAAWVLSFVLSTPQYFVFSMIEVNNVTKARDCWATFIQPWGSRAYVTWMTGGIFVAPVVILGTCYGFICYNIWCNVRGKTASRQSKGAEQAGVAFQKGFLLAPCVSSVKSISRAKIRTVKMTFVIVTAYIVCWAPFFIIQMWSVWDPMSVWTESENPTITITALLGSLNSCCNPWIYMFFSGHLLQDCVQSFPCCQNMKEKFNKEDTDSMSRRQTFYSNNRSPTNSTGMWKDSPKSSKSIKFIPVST
Chain of Mitogen-activated protein kinase 1 (P28482 whole entry): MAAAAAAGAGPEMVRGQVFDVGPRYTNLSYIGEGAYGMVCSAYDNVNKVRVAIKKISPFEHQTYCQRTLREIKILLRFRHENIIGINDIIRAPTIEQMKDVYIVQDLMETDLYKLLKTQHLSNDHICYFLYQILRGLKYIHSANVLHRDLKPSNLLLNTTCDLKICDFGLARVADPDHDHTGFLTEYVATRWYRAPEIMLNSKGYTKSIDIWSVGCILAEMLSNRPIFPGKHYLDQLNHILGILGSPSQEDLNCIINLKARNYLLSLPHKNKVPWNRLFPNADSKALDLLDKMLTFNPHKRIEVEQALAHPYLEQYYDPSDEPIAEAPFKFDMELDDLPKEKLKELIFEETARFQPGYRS
Chain of Receptor tyrosine-protein kinase erbB-2 (P04626 whole entry): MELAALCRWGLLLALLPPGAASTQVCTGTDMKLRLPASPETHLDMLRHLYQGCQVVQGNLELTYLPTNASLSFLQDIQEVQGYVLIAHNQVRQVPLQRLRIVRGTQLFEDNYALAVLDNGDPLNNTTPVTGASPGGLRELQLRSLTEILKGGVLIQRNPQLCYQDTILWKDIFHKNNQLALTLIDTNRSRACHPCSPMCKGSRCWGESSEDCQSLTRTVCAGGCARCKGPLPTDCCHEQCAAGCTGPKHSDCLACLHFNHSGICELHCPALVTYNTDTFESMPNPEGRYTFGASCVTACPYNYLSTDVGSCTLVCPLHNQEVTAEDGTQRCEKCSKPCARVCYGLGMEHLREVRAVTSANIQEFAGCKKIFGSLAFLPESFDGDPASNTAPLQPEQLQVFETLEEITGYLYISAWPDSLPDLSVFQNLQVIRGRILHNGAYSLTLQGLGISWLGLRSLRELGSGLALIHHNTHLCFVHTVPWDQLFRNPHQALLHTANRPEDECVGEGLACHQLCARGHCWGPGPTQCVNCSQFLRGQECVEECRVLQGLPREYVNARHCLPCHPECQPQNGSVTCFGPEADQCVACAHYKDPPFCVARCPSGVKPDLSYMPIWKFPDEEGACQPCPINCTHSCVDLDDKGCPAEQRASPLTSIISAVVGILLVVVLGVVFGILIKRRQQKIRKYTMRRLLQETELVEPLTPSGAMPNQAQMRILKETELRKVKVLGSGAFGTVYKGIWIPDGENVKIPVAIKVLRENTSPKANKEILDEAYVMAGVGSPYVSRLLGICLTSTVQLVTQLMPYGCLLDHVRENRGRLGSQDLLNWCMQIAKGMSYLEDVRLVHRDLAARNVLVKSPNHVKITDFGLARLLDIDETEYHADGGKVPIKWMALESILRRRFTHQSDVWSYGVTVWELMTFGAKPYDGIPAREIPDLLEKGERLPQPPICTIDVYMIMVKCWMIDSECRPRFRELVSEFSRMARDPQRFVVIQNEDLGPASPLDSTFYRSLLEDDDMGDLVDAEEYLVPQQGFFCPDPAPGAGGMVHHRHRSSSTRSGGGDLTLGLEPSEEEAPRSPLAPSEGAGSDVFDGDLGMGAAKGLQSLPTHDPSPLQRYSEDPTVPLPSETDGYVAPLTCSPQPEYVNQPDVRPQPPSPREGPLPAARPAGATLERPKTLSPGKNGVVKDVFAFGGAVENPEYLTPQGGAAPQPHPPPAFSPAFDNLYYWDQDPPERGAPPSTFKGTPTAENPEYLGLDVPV

Structure (SMILES)	IC50 [1]	Ki [1]	IC50 [2]	Ki [2]	IC50 (B2 bradykinin receptor)	IC50 [3]	IC50 [4]	IC50 [5]	Ki [5]	IC50 (Caspase-1)	IC50 (Carbonic anhydrase 2)	IC50 [6]	IC50 (Vasopressin V1a receptor)	IC50 [7]	IC50 [8]	Ki [8]	IC50 [9]	IC50 [10]	Ki [10]	IC50 (Mu-type opioid receptor)	other results
CN[C@@H]1[C@@H](O)[C@@H](O[C@@H]2[C@@H](O)[C@H](O[C@H]3OC(CN)=CC[C@H]3N)[C@@H](N)C[C@H]2N)OC[C@]1(C)O [SISOMICIN]	Not Active	Not Active	Not Active	Not Active	Not Active	Not Active	Not Active	Not Active	Not Active	Not Active	Not Active	Not Active	Not Active	Not Active	Not Active	Not Active	Not Active	Not Active	Not Active	Not Active	IC50 (Adenosine receptor A3; cho-k1): Not Active
CC(=O)S[C@@H]1CC2=CC(=O)CC[C@]2(C)[C@H]2CC[C@@]3(C)[C@@H](CC[C@@]34CCC(=O)O4)[C@H]12 [SPIRONOLACTONE]	Not Active	Not Active	Not Active	Not Active	Not Active	Not Active	Not Active	Not Active	Not Active	Not Active	Not Active	Not Active	Not Active	Not Active	Not Active	Not Active	Not Active	Not Active	Not Active	Not Active	IC50 (Adenosine receptor A3; cho-k1): Not Active
C[C@]12Cc3c[nH]nc3C[C@@H]1CC[C@@H]1[C@@H]2CC[C@@]2(C)[C@H]1CC[C@]2(C)O [STANOZOLOL]	Not Active	Not Active	Not Active	Not Active	Not Active	Not Active	Not Active	Not Active	Not Active	Not Active	Not Active	Not Active	Not Active	Not Active	Not Active	Not Active	Not Active	Not Active	Not Active	Not Active	IC50 (Adenosine receptor A3; read-out: IC50): 8.33 µM; Ki (Adenosine receptor A3; read-out: Ki): 4.71 µM
CN(N=O)C(=O)N[C@@H](C=O)[C@@H](O)[C@H](O)[C@H](O)CO [STREPTOZOCIN]	Not Active	Not Active	Not Active	Not Active	Not Active	Not Active	Not Active	Not Active	Not Active	Not Active	Not Active	Not Active	Not Active	Not Active	Not Active	Not Active	Not Active	Not Active	Not Active	Not Active	IC50 (Adenosine receptor A3; cho-k1): Not Active
Cc1cc(NS(=O)(=O)c2ccc(N)cc2)no1 [SULFAMETHOXAZOLE]	Not Active	Not Active	Not Active	Not Active	Not Active	Not Active	Not Active	Not Active	Not Active	Not Active	Not Active	Not Active	Not Active	Not Active	Not Active	Not Active	Not Active	Not Active	Not Active	Not Active	IC50 (Adenosine receptor A3; cho-k1): Not Active
Nc1ccc(S(=O)(=O)Nc2ccnn2-c2ccccc2)cc1 [SULFAPHENAZOLE]	Not Active	Not Active	Not Active	Not Active	Not Active	Not Active	Not Active	Not Active	Not Active	Not Active	Not Active	Not Active	Not Active	Not Active	Not Active	Not Active	Not Active	Not Active	Not Active	Not Active	IC50 (Adenosine receptor A3; cho-k1): Not Active
C=CC[C@@H]1/C=C(\C)C[C@H](C)C[C@H](OC)[C@H]2O[C@@](O)(C(=O)C(=O)N3CCCC[C@H]3C(=O)O[C@H](/C(C)=C/[C@@H]3CC[C@@H](O)[C@H](OC)C3)[C@H](C)[C@@H](O)CC1=O)[C@H](C)C[C@@H]2OC [TACROLIMUS ANHYDROUS]	Not Active	Not Active	Not Active	Not Active	Not Active	Not Active	Not Active	Not Active	Not Active	Not Active	Not Active	Not Active	Not Active	Not Active	Not Active	Not Active	Not Active	Not Active	Not Active	Not Active	IC50 (Adenosine receptor A3; cho-k1): Not Active
